Measurements taken from US11458138B2 (Novartis AG, priority 2017, dated 2022).
pEC50, pIC50: −log10 of the molar value.

Assays:
[1] = target: LATS1 (Homo sapiens (Human), UniProt O95835); assay: LATS1 biochemical assay (Table 1A, Compound Examples 1-290; method in the earlier part)
[2] = tested on: Phospho-YAP (SER127) in HaCaT cells; assay: pYAP HTRF Assay (HaCaT Cells); type: cell-based, human; conditions: 2 hours
Protocol: The pYAP HTRF assay was performed using the Phospho-YAP (SER127) 10000 test kit (CisBio, catalogue number 64YAPPEH) according to manufacturer's instructions. Briefly, HaCaT cells were suspended at 1.1×10^6 cells/mL in DMEM (no phenol red)+10% FBS with penicillin-streptomycin-glutamine. 5 μL of cells were dispensed into 1536 well white solid bottom, tissue culture treated plates (5500 cells/well), and incubated for 48 hours at 37° C. 50 nL test compound was transferred into the assay plates containing HaCaT cells using Pintool (GNF) and incubated for 2 hours. […] The plates were incubated overnight (20 hrs) at room temperature covered with metal lids. Plates were read on Pherastar (BMG Labtech) for HTRF (665 nm/620 nm).

[3] = tested on: YAP nuclear translocation in HaCaT cells; assay: YAP Translocation Assay (HaCaT Cells); type: cell-based, human; conditions: 24 hours
Method in brief: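 HaCaT cells (20,000/well) in DMEM + 10% FBS were plated overnight at 37° C, then exposed to compound for 24 h at 37° C. Cells were fixed with PFA, permeabilized with 0.1% Triton/1.5% BSA and imaged by high-content imaging.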

Chain of LATS1 (O95835 whole entry, looked up): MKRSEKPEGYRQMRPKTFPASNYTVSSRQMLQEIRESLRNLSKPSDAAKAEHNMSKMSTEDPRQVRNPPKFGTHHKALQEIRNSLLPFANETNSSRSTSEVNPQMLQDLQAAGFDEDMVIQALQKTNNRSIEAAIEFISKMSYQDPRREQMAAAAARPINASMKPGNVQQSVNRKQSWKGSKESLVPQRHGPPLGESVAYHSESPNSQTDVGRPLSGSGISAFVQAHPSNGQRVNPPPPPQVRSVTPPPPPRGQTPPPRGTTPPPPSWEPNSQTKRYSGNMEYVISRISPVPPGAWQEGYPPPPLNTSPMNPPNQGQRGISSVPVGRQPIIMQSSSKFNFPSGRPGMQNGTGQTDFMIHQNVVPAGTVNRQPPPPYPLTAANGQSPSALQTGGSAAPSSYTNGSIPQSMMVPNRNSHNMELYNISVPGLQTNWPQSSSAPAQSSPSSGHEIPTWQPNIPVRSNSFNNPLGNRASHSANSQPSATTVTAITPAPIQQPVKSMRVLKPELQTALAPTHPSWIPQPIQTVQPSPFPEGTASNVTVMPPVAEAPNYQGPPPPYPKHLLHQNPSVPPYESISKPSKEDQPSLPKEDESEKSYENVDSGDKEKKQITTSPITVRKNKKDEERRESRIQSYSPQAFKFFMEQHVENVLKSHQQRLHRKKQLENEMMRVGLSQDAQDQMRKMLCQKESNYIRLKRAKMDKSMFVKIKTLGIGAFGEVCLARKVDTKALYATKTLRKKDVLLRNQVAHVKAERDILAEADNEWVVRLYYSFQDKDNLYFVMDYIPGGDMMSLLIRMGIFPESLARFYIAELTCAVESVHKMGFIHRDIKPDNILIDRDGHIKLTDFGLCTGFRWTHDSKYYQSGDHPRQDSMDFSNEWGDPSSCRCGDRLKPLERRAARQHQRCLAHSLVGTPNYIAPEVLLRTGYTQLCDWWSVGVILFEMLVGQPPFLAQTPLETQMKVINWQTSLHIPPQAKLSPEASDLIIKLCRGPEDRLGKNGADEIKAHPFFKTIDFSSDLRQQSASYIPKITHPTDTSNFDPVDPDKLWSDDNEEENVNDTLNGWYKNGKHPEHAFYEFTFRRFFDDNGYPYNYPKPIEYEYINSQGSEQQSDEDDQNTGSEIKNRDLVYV
Chain of LATS1 (Q7L9L4 whole entry partner, looked up): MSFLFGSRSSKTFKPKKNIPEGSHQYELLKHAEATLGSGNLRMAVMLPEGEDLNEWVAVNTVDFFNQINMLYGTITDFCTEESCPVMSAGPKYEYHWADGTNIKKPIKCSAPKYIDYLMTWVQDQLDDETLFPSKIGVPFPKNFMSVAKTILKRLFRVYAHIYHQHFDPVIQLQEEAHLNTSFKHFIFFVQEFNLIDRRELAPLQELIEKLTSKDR

SMILES | pIC50 [1] | pIC50 ([2]; Homo sapiens) | pEC50 ([3]; Homo sapiens) | pIC50 [2] | pEC50 [3]
CN(C)c1nc(-c2ccncc2)nc2cnccc12 [Example 88, N,N-dimethyl-2-(pyridin-4-yl)pyrido[3,4-d]pyrimidin-4-amine] | 7.43 | 4.16 | 4.53 |  | 
CC(C)(CO)Nc1cc(-c2ccncc2F)nc2cnccc12 [Example 282, 2-{[2-(3-fluoropyridin-4-yl)-1,7-naphthyridin-4-yl]amino}-2-methylpropan-1-ol] | 8.00 | 5.08 | 4.95 |  | 
C[C@@H](N(C)c1nc(-c2ccncc2F)nc2cnccc12)C(F)(F)F [Example 137, 2-(3-fluoropyridin-4-yl)-N-methyl-N-[(2R)-1,1,1-trifluoropropan-2-yl]pyrido[3,4-d]pyrimidin-4-amine] | 7.66 | 4.45 | < 4.75 |  | 
O[C@@H]1CCC[C@@H]1Nc1nc(-c2ccncc2)nc2cnccc12 [Example 26, (1R,2S)-2-{[2-(pyridin-4-yl)pyrido[3,4-d]pyrimidin-4-yl]amino}cyclopentan-1-ol] | 7.51 | 4.26 | < 4.00 |  | 
CC1(Nc2nc(-c3ccncc3)nc3cnccc23)COC1 [Example 16, N-(3-methyloxetan-3-yl)-2-(pyridin-4-yl)pyrido[3,4-d]pyrimidin-4-amine] | 8.30 | 5.01 | 4.80 |  | 
CS(=O)(=O)CCNc1nc(-c2ccncc2)nc2cnccc12 [Example 41, N-(2-methanesulfonylethyl)-2-(pyridin-4-yl)pyrido[3,4-d]pyrimidin-4-amine] | 6.15 | < 5.00 | < 4.70 |  | 
OCC(CC(F)(F)F)Nc1nc(-c2ccncc2)nc2cnccc12 (stereo not drawn) [Example 76, 4,4,4-trifluoro-2-{[2-(pyridin-4-yl)pyrido[3,4-d]pyrimidin-4-yl]amino}butan-1-ol] | 8.05 | 5.19 | 5.03 |  | 
Cc1n[nH]c(C)c1-c1nc(NC(C)(C)CC(C)(C)O)c2ccncc2n1 [Example 160, 4-{[2-(3,5-dimethyl-1H-pyrazol-4-yl)pyrido[3,4-d]pyrimidin-4-yl]amino}-2,4-dimethylpentan-2-ol] | 7.62 | 5.17 | < 4.70 |  | 
CC(C)(CCS(C)(=O)=O)Nc1nc(-c2ccncc2)nc2cnccc12 [Example 22, N-(4-methanesulfonyl-2-methylbutan-2-yl)-2-(pyridin-4-yl)pyrido[3,4-d]pyrimidin-4-amine] | 8.15 | 4.94 | 4.89 |  | 
CC1(Nc2nc(-c3ccncc3C#N)nc3cnccc23)CC1 [Example 141, 4-{4-[(1-methylcyclopropyl)amino]pyrido[3,4-d]pyrimidin-2-yl}pyridine-3-carbonitrile] | 8.40 | 4.87 | < 5.00 |  | 
OC1(CNc2nc(-c3ccncc3)nc3cnccc23)CCCC1 [Example 87, 1-({[2-(pyridin-4-yl)pyrido[3,4-d]pyrimidin-4-yl]amino}methyl)cyclopentan-1-ol] | 7.52 | 4.29 | < 4.70 |  | 
CC(C)(COC(C)(C)C)Nc1nc(-c2ccncc2)nc2cnccc12 [Example 75, N-[1-(tert-butoxy)-2-methylpropan-2-yl]-2-(pyridin-4-yl)pyrido[3,4-d]pyrimidin-4-amine] | 8.10 | 5.42 | 5.16 |  | 
CCOC(=O)C1(Nc2nc(-c3ccncc3)nc3cnccc23)CCC1 [Example 55, ethyl 1-{[2-(pyridin-4-yl)pyrido[3,4-d]pyrimidin-4-yl]amino}cyclobutane-1-carboxylate] | 6.34 | < 5.00 | < 4.70 |  | 
CCCCNc1nc(-c2ccncc2)nc2cnccc12 [Example 19, N-butyl-2-(pyridin-4-yl)pyrido[3,4-d]pyrimidin-4-amine] | 8.22 | 4.61 | 4.75 |  | 
CC1CCCC1Nc1nc(-c2ccncc2)nc2cnccc12 (single isomer, unassigned) [Example 17d] | 9.00 |  |  | 6.40 | 5.76
CC1CCCC1Nc1nc(-c2ccncc2)nc2cnccc12 (single isomer, unassigned) [Example 17c] | 8.52 |  |  | 5.37 | 5.33
CCCCCNc1nc(-c2ccncc2)nc2cnccc12 [Example 77, N-pentyl-2-(pyridin-4-yl)pyrido[3,4-d]pyrimidin-4-amine] | 8.05 | < 4.00 | 4.87 |  | 
C#CC(C)(C)Nc1nc(-c2ccncc2)nc2cnccc12 [Example 69, N-(2-methylbut-3-yn-2-yl)-2-(pyridin-4-yl)pyrido[3,4-d]pyrimidin-4-amine] | 8.52 | 5.33 | 4.94 |  | 

SMILES | pIC50 [1] | pIC50 ([2]; Homo sapiens) | pEC50 ([3]; Homo sapiens) | pIC50 [2] | pEC50 [3]
Cc1noc(C)c1-c1nc(NC2(C)CC2)c2ccncc2n1 [Example 153, 2-(dimethyl-1,2-oxazol-4-yl)-N-(1-methylcyclopropyl)pyrido[3,4-d]pyrimidin-4-amine] | < 5.30 | < 5.00 | < 4.70 |  | 
COC(=O)C(C)(C)Nc1nc(-c2ccncc2)nc2cnccc12 [Example 32, Methyl 2-methyl-2-{[2-(pyridin-4-yl)pyrido[3,4-d]pyrimidin-4-yl]amino}propanoate] | 7.33 | < 5.00 | < 4.70 |  | 
CC(C)(CC#N)Nc1nc(-c2ccncc2)nc2cnccc12 [Example 104, 3-methyl-3-{[2-(pyridin-4-yl)pyrido[3,4-d]pyrimidin-4-yl]amino}butanenitrile] | 8.30 | 5.59 | 5.28 |  | 
COc1ccc(Nc2nc(-c3ccncc3)nc3cnccc23)cc1 [Example 91, N-(4-methoxyphenyl)-2-(pyridin-4-yl)pyrido[3,4-d]pyrimidin-4-amine] | 6.83 | < 5.00 | < 4.70 |  | 
CC(C)(Nc1nc(-c2ccncc2)nc2cnccc12)C1CC1 [Example 1, N-(2-cyclopropylpropan-2-yl)-2-(pyridin-4-yl)pyrido[3,4-d]pyrimidin-4-amine] | 9.00 | 7.72 | 6.49 |  | 
COC1CC(Nc2nc(-c3ccncc3)nc3cnccc23)C1 (stereo not drawn) [Example 52, N-(3-methoxycyclobutyl)-2-(pyridin-4-yl)pyrido[3,4-d]pyrimidin-4-amine] | 7.92 | 4.95 | < 4.70 |  | 
CC1(Nc2nc(-c3cncs3)nc3cnccc23)CC1 [Example 149, N-(1-methylcyclopropyl)-2-(1,3-thiazol-5-yl)pyrido[3,4-d]pyrimidin-4-amine] | 6.77 | < 5.00 | < 4.70 |  | 
CCN(c1nc(-c2ccncc2F)nc2cnccc12)C(C)C [Example 120, N-ethyl-2-(3-fluoropyridin-4-yl)-N-(propan-2-yl)pyrido[3,4-d]pyrimidin-4-amine] | 8.00 | 5.67 | 5.53 |  | 
OCC1(Nc2nc(-c3ccncc3)nc3cnccc23)CCCC1 [Example 51, (1-{[2-(pyridin-4-yl)pyrido[3,4-d]pyrimidin-4-yl]amino}cyclopentyl)methanol] | 8.22 | 4.24 | 5.36 |  | 
CCC(C)(C)Nc1nc(-c2ccncc2)nc2cnccc12 [Example 63, N-(2-methylbutan-2-yl)-2-(pyridin-4-yl)pyrido[3,4-d]pyrimidin-4-amine] | 9.00 | 6.88 | 6.47 |  | 
Cc1n[nH]cc1-c1nc(NC(C)(C)C(F)(F)F)c2ccncc2n1 [Example 135, 2-(3-methyl-1H-pyrazol-4-yl)-N-(1,1,1-trifluoro-2-methylpropan-2-yl)pyrido[3,4-d]pyrimidin-4-amine] | 8.70 | 6.31 | 6.07 |  | 
CC(C)(CNC(=O)OC(C)(C)C)Nc1nc(-c2ccncc2)nc2cnccc12 [Example 100, Tert-butyl N-(2-methyl-2-{[2-(pyridin-4-yl)pyrido[3,4-d]pyrimidin-4-yl]amino}propyl)carbamate] | 8.40 | 4.94 | 5.32 |  | 
Cn1cc(-c2nc(NC3(C)CC3)c3ccncc3n2)cn1 [Example 196, 2-(1-methyl-1H-pyrazol-4-yl)-N-(1-methylcyclopropyl)pyrido[3,4-d]pyrimidin-4-amine] | < 5.60 | < 5.00 | < 4.70 |  | 
CNc1nc(-c2ccncc2)nc2cnccc12 [Example 86, N-methyl-2-(pyridin-4-yl)pyrido[3,4-d]pyrimidin-4-amine] | 7.59 | 4.25 | < 4.70 |  | 
CCC(CO)Nc1nc(-c2ccncc2)nc2cnccc12 (stereo not drawn) [Example 78, 2-{[2-(pyridin-4-yl)pyrido[3,4-d]pyrimidin-4-yl]amino}butan-1-ol] | 7.96 | 4.92 | 4.84 |  | 
CC1(Nc2nc(-c3cn[nH]c3)nc3cnccc23)CC1 [Example 194, N-(1-methylcyclopropyl)-2-(1H-pyrazol-4-yl)pyrido[3,4-d]pyrimidin-4-amine] | 8.30 | 4.95 | 5.37 |  | 
CC1(Nc2nc(-c3ccncn3)nc3cnccc23)CC1 [Example 159, N-(1-methylcyclopropyl)-2-(pyrimidin-4-yl)pyrido[3,4-d]pyrimidin-4-amine] | 7.80 | < 5.00 | < 4.70 |  | 
